Measurements: patent US9452177B2, “Vitamin D compounds and methods for reducing ocular hypertension (OHT)” (Wisconsin Alumni Research Foundation, priority 2008, dated 2016)
Entries after “also recorded” stand apart in the source; their conditions may differ.

Legend:
[1] = test system: eyes of cynomolgus monkeys; assay: Aqueous humor formation rate by ocular scanning fluorophotometry; type: in vivo; details: for AHF Rx/Baseline, Vitamin D eye / AHF Rx/Baseline, Vitamin D/Vehicle / AHF ratio Vitamin D/Vehicle after treatment / Aqueous humor formation (AHF), Vitamin D eye after treatment: 5 μg
Procedure: (§1) Ocular normotensive adult cynomolgus monkeys, of either sex, weighing 3-7 kg were anesthetized with i.m. ketamine HCl (3-25 mg/kg, supplemented with 1-10 mg/kg) for IOP, topical drop administration and aqueous humor flow measurements. All monkeys were free of any ocular abnormalities according to slit lamp biomicroscopy at the time measurements were taken. For outflow facility measurements, animals were given intravenous sodium pentobarbital (15 mg/kg, supplemented with 5-10 mg/kg) following i.m. ketamine induction.
Aqueous humor formation rate was determined by ocular scanning fluorophotometry (Fluorotron Master, OcuMetrics Inc, Mountain View, Calif.) as previously described [Rasmussen, 2007]. Fluorescein drops were administered at least 30 minutes after the fourth treatment (see above) with vitamin D or vehicle. On day 3, prior to the fifth treatment, IOP and biomicroscopy were done. Following the fifth treatment scans were taken hourly, beginning 1 hour after treatment, until 6 duplicates scans were collected. Baseline scans were collected for 6 hours within 2 weeks before and at least 2 weeks after the treatment study. Post treatment aqueous humor formation rates were compared to the average of the pre and post baseline scans and to the vehicle treated eyes by the paired t-test for ratios different from 1.0. There were 8 monkeys for each treatment group.
Aqueous humor formation was measured by fluorophotometry during the interval 1-6 hr after the 5th topical bid treatment with vitamin D or vehicle to opposite eyes (see Materials and Methods). Units for aqueous humor formation are μl/min. Data are Mean±Sem. Rx, treatment (Vitamin D or vehicle) n=6.

monkey eyes = assay: Outflow facility by two-level constant pressure perfusion of the anterior chamber; type: in vivo, cynomolgus monkeys; details: for increase in outflow facilities, vitamin D treated eyes: combined n=8
Procedure: as §1
Outflow facility was determined in pentobarbital-anesthetized monkeys [Gabelt, 2004] by two-level constant pressure perfusion of the anterior chamber with Bárány's perfusand [Bárány, 1964] (n=8). Four monkeys (group A) received the single bolus injection of 1 μl of 1 μg vitamin D 1,25-dihydroxyvitamin D3 (1,25-(OH)2D3) into the anterior chamber of one eye (Treated eye) or 1 μl of propylene glycol into the anterior chamber of fellow eye (Control eye). Four monkeys (group B) were treated topically with 5 μg of vitamin D in 5 μl of propylene glycol or vehicle (5 μl of propylene glycol) twice daily for two days.
Following baseline outflow facility measurements on the third day, the fifth treatment was administered as a single bolus injection of 1 μl of 1 μg vitamin D 1,25-dihydroxyvitamin D3 (1,25-(OH)2D3) into the anterior chamber of one eye (Treated eye) or 1 μl of propylene glycol into the anterior chamber of fellow eye (Control eye). Following injections, the treatment bolus was allowed to wash in for 5 min with flow from the reservoirs. Then the contents of the anterior chamber were mixed by blowing cold air on the cornea to create convection. Reservoirs were closed for 75 minutes, then reopened and outflow facility measured for 60-90 minutes. Data were averaged for the entire 60-90 minute period and for 30-minute intervals and then were compared to baseline and to the vehicle treated eyes. Ratios were compared by the two-tailed paired t-test for ratios different from 1.0.
Baseline outflow facilities were studied in two groups (A and B) of monkeys (Materials and Methods). Group A (n=4) was treated with single bolus intracameral injection of 1 μg vitamin D (1,25-(OH)2D3) in 1 μl propylene glycol in one eye and 1 μl vehicle, propylene glycol in the control eye (Table 2, A). Group B (n=4) was treated topically with 5 μg of vitamin D in 5 μl of propylene glycol or vehicle (5 μl of propylene glycol) twice daily for two days. Then, following baseline outflow facility measurements on the third day, the fifth treatment was administered as a single bolus injection of 1 μl of 1 μg vitamin D 1,25-dihydroxyvitamin D3 (1,25-(OH)2D3) into the anterior chamber of one eye (Treated eye) or 1 μl of propylene glycol into the anterior chamber of fellow eye (Control eye).

[2] = Serum Ca2+ level after ocular topical applications; type: in vivo, cynomolgus monkeys (Macaca fascicularis); details: 5 μg, 3 days, total 5 unilateral topical applications
Procedure: Under ketamine anesthesia (KETAJECT™, Phoenix Pharmaceutical, St Joseph, Mo. (3-25 mg/kg i.m., supplemented with 1-10 mg/kg i.m. as needed) baseline IOP was determined, usually between 7:30 and 9 am (2 readings, 5 minutes apart; if IOP baseline measurements were not within 2-3 mm Hg of each other, a 3rd reading was taken 5 min later). Baseline IOP was at least 15 mmHg if possible. A baseline blood sample was taken from the femoral artery or vein, or sometimes the brachial vein (1-2 ml). This was allowed to clot and then spun down (3000 rpm for 10 min, Damon/IEC NH-SII centrifuge) and the serum removed and frozen at −20 C for no more than 1 week. Baseline systolic, diastolic and mean arterial pressure as well as heart rate were recorded with the Dinamap monitor from a cuff placed around the arm or the leg.
On the 3th day, prior to the 5th treatment, baseline IOP, biomicroscopy and MAP were determined. […] Following the 5th dose, IOP was measured at 1, 2, 3, 4, 5, 6, 7, 8, 12 (if possible), 24, and sometimes 48 hr. […] MAP on day 3 (some protocols) was determined at 1, 2, 3, 4, 5, 6, 7, 8, 24 and sometimes 48 hr if possible. […] For some protocols, IOP was also measured prior to each treatment; MAP was measured prior to the morning treatment; blood was collected prior to the afternoon treatment. […]

[3] = Hours 1-3 after 5th topical bid treatment
[4] = Hours 1-6 after 5th topical bid treatment
[5] = Hours 4-6 after 5th topical bid treatment
[6] = Combined data for Groups A and B, n=8
[7] = Group A, 1 μg intracameral, n=4
[8] = Group B, 5 μg topical (4 treatments) then 1 μg intracameral, n=4

## C=C1/C(=C\C=C2/CCC[C@]3(C)[C@@H]([C@H](C)CCCC(C)(C)O)CC[C@@H]23)C[C@@H](O)C[C@@H]1O [1,25-(OH)2D3, 1α,25-dihydroxyvitamin D3]
[1]; 5 μg topical, compared to baseline or vehicle eye
  change in aqueous humor formation rate: no changes in the aqueous humor formation rates; also recorded: does not change the aqueous humor formation
[1]; [3]
  AHF Rx/Baseline, Vitamin D eye: 1.06 ± 0.10
  AHF Rx/Baseline, Vitamin D/Vehicle: 1.07 ± 0.06
  AHF ratio Vitamin D/Vehicle after treatment: 0.94 ± 0.05
  Aqueous humor formation (AHF), Vitamin D eye after treatment: 1.27 ± 0.08 µL/min
[1]; [4]
  AHF Rx/Baseline, Vitamin D eye: 1.14 ± 0.06
  AHF Rx/Baseline, Vitamin D/Vehicle: 1.10 ± 0.07
  AHF ratio Vitamin D/Vehicle after treatment: 1.01 ± 0.07
  Aqueous humor formation (AHF), Vitamin D eye after treatment: 1.53 ± 0.10 µL/min
[1]; [5]
  AHF Rx/Baseline, Vitamin D eye: 1.25 ± 0.09
  AHF Rx/Baseline, Vitamin D/Vehicle: 1.22 ± 0.16
  AHF ratio Vitamin D/Vehicle after treatment: 0.98 ± 0.10
  Aqueous humor formation (AHF), Vitamin D eye after treatment: 1.54 ± 0.14 µL/min
Monkey eyes; [6]
  Cumulative 90 min outflow facility, Treated eye after Vitamin D: 0.44 ± 0.13 μl/min/mmHg
  Outflow facility Vitamin D/Baseline, Treated/Control: 0.94 ± 0.11
  Outflow facility ratio Treated/Control after Vitamin D: 0.87 ± 0.16
Monkey eyes; Combined data for Groups A and B, n=8, *p<0.05 vs 1.0
  Outflow facility Vitamin D/Baseline, Treated eye: 1.59 ± 0.19*
Monkey eyes; [7]
  Cumulative 90 min outflow facility, Treated eye after Vitamin D: 0.37 ± 0.07 μl/min/mmHg
  Outflow facility Vitamin D/Baseline, Treated eye: 1.80 ± 0.30
  Outflow facility Vitamin D/Baseline, Treated/Control: 1.04 ± 0.13
  Outflow facility ratio Treated/Control after Vitamin D: 0.82 ± 0.20
Monkey eyes; [8]
  Cumulative 90 min outflow facility, Treated eye after Vitamin D: 0.51 ± 0.26 μl/min/mmHg
  Outflow facility Vitamin D/Baseline, Treated eye: 1.39 ± 0.45
  Outflow facility Vitamin D/Baseline, Treated/Control: 0.84 ± 0.18
  Outflow facility ratio Treated/Control after Vitamin D: 0.91 ± 0.27
Monkey eyes; at 60 min, significant
  increase in outflow facilities, vitamin D treated eyes: 60%
Monkey eyes; at 90 min, significant
  increase in outflow facilities, vitamin D treated eyes: 115%
Monkey eyes; at 90 min after the intracameral injections
  increase in outflow facilities over baseline, both eyes: about 100%
Monkey eyes; cumulative 90 min, groups A and B and combined
  outflow facility, vitamin D versus vehicle treated eyes: no significant differences were found neither between the vitamin D or vehicle treated eyes; also recorded: did not change either the aqueous humor flow or the outflow facilities
Monkey eyes; first 30 min after the bolus injection, non-significant
  increase in outflow facilities, vitamin D treated eyes: 10%
[2]
  blood serum calcium levels: did not change
